In PMC11396746, “Stability Evaluation and Pharmacokinetic Profiling of Vepdegestrant in Rodents Using Liquid Chromatography–Tandem Mass Spectrometry” (Molecules, 2024):
Read-outs that look alike come from different tables or passages of the source.

Assays:
[1] = Metabolic stability in rat liver microsomes; format: in vitro ADME
Description: (§1) The metabolic stability of vepdegestrant was evaluated using liver microsomes obtained from mice, rats, dogs, and humans. Vepdegestrant was dissolved in DMSO to prepare a stock solution with a concentration of 0.1 mM. Microsomes (25 µL) were spiked into PBS (440 µL) and pre-incubated for 5 min. After pre-incubation, vepdegestrant stock solution (5 µL) was added, followed by an NADPH regenerating system (27 µL) to initiate the reaction. The composition of the reaction mixture was as follows: Vepdegestrant (final concentration 1 µM), mouse, rat, dog, human liver microsomes (protein concentration: 1 mg/mL), NADPH regenerating system (final concentrations: 1.3 mM NADP^+, 3.3 mM glucose-6-phosphate, 0.4 U/mL glucose-6-phosphate dehydrogenase, and 3.3 mM magnesium chloride), and PBS (pH 7.4). At 5, 15, 30, and 60 min after starting the reaction, aliquots (50 µL) were taken and added to ice-cold ACN with an IS (200 µL) to terminate the reaction. For the zero-time samples, aliquots were taken before adding NADPH. Subsequently, the mixture was vigorously mixed for 10 min and centrifuged at 17,054 g under 25 °C for 10 min. For analysis, 5 µL of the supernatant was injected into the HPLC-MS/MS system. In addition, the stability of vepdegestrant in rat liver microsomes was assessed in the absence of NADPH or NADPH and microsomes (PBS only). The experimental procedure was the same as described for the microsomal stability test, except that an equivalent volume of PBS was added instead of NADPH or microsomes.

[2] = Metabolic stability in human liver microsomes; format: in vitro ADME
Description: as §1, with “The experimental procedure was the same as described for the microsomal stability test, except that an equivalent volume of PBS was added instead of NADPH or microsomes.” left out

[3] = Plasma stability at 4, 25 and 37 °C; format: in vitro ADME; conditions: mouse and rat plasma at 4, 25 and 37 °C, 4 h incubation, 0.1 µg/mL
Description: Plasma stability of vepdegestrant was investigated in mouse and rat plasma. Vepdegestrant (10 µL) was added to blank mouse or rat plasma (490 µL) to prepare a final concentration of 0.1 µg/mL. The mixtures were incubated at 4, 25, and 37 °C. After 0, 1, and 4 h of incubation, aliquots (50 µL) were added to microtubes containing ice-cold ACN solution with an IS (200 µL) to terminate the reaction. The mixture was vortexed thoroughly for 10 min and centrifuged at 17,054 g under 25 °C for 10 min. Subsequently, the supernatant (100 µL) was taken, and 5 µL was injected for HPLC-MS/MS analysis.

[4] = Pharmacokinetic study in male ICR mice; format: in vivo; conditions: mouse
Description: Twelve healthy male ICR mice (6 weeks old, 27.5–30.5 g) and 10 healthy male Sprague–Dawley (SD) rats (7 weeks old, 195.5–212.0 g) were acquired from Orient Bio Inc. (Seongnam, Republic of Korea) and used for PK studies. The animals were kept in rooms in a temperature range of 20–25 °C, humidity of 40–60%, and a 12-h light/dark cycle. Before the experiment, mice were fasted for 4 h, whereas rats were fasted for 14 h, with only water provided during the fasting period. After 4 h of drug administration, animals were provided with free access to food and water. All animal experiments were approved by the Institutional Animal Care and Use Committee of the Chungnam National University (202310A-CNU-178; Daejeon, Republic of Korea).
For the PK studies in mice, a vepdegestrant dosing solution was prepared using a combination of DMSO, PEG400, and saline (5:25:70, v/v/v). The dosing solution was administered intravenously (IV, 2 mg/kg) through the tail vein or orally (PO, 5 mg/kg) through a gavage needle. The dose volume for both routes was 10 mL/kg. Blood samples (50 μL) were collected via the retro-orbital plexus at 0.05 (IV only), 0.25, 0.5, 1, 2, 4, 8, and 24 h post vepdegestrant administration using heparin-coated microcapillaries. Blood samples were immediately centrifuged at 12,032 g under 25 °C for 5 min, and plasma aliquots (20 μL) were stored at −20 °C until HPLC-MS/MS analysis.
The collected plasma samples from mice or rats (20 µL) were added with IS (20 µL) and ACN (160 µL). Subsequently, the mixture was vigorously mixed for 10 min and centrifuged at 17,054× g under 25 °C for 10 min. An aliquot of the supernatant (100 μL) was taken, and a volume of 5 μL was injected for HPLC-MS/MS analysis. PK parameters were calculated using Phoenix® 8.3 software (Certara L.P., Princeton, NJ, USA), as described previously.

[5] = Plasma protein binding (PPB) using a rapid equilibrium dialysis device; format: in vitro ADME
Description: Low plasma stability was predicted based on pH stability results. […] In addition, we evaluated the plasma protein binding (PPB) of vepdegestrant using a rapid equilibrium dialysis device. However, the concentration of vepdegestrant in the buffer was below the quantification limit, making it impossible to determine an accurate binding ratio. This phenomenon persisted even when the administered concentration was increased from 2 to 10 µg/mL or when the plasma was diluted up to 100-fold. […] Furthermore, the recovery of vepdegestrant in the plasma after a 4-h incubation was greater than 85%. The unrecovered fraction may result from nonspecific binding to the device and membrane. Further studies should be conducted using alternative methods.

[6] = Stability in PBS only (control of microsomal stability test, no NADPH and no microsomes); format: physicochemical; conditions: PBS (pH 7.4), 1 h incubation
Description: as §1, with “The experimental procedure was the same as described for the microsomal stability test, except that an equivalent volume of PBS was added instead of NADPH or microsomes.” left out

[7] = Metabolic stability in dog liver microsomes; format: in vitro ADME
Description: as §1, with “The experimental procedure was the same as described for the microsomal stability test, except that an equivalent volume of PBS was added instead of NADPH or microsomes.” left out

In the case of O=C1CC[C@H](N2Cc3cc(N4CCN(CC5CCN(c6ccc([C@@H]7c8ccc(O)cc8CC[C@@H]7c7ccccc7)cc6)CC5)CC4)ccc3C2=O)C(=O)N1 [vepdegestrant, Vepdegestrant], the half-life at 1 µM ([1]; Sprague-Dawley, liver microsomes, pH 7.4, rat microsomes, 1 μM) is reported as 0.615 h, the vepdegestrant remaining ([1]; rat microsomes in the absence of NADPH, 1 h incubation) is reported as 86.6% and the “remaining percentage of unconverted vepdegestrant” value (“remaining percentage” below) ([1]; rat microsomes, 60 min, 1 μM, with NADPH) is reported as 32.2%. The “remaining percentage” value ([2]; 60 min, 1 μM, with NADPH) was 98.3%, the half-life at 1 µM ([2]; liver microsomes, pH 7.4) was 13.4 h and the “vepdegestrant remaining in plasma” value [3] was 86.3–113.5%. For the same compound, the Vd ([4]; male, ICR, plasma, intravenous, 2 mg/kg, read-out: volume of distribution) was > 1 L/kg, the Cmax ([4]; male, ICR, plasma, IV 2 mg/kg) was 2180 ± 442 ng/mL and the MRT ([4]; male, ICR, plasma, IV 2 mg/kg) was 4.61 ± 1.43 h. It also gave a Tmax ([4]; male, ICR, plasma, IV 2 mg/kg) of 0.05 h, a clearance ([4]; male, ICR, plasma, IV 2 mg/kg) of 5.22 mL/min/kg and a half-life ([4]; male, ICR, plasma, IV 2 mg/kg) of 3.79 ± 1.15 h. It also gave a Vd ([4]; male, ICR, plasma, IV 2 mg/kg, read-out: Vss) of 1.43 ± 0.472 L/kg, a Cmax ([4]; male, ICR, plasma, PO 5 mg/kg) of 393 ± 133 ng/mL and an MRT ([4]; male, ICR, plasma, PO 5 mg/kg) of 5.58 ± 1.34 h. It also gave a Tmax ([4]; male, ICR, plasma, PO 5 mg/kg) of 1 h, a half-life ([4]; male, ICR, plasma, PO 5 mg/kg) of 3.64 ± 1.4 h and a bioavailability ([4]; male, ICR, plasma, PO 5 mg/kg vs IV 2 mg/kg, read-out: BA (oral bioavailability)) of 17.9 ± 4.35%. The AUCinf ([4]; IV 2 mg/kg) was 6510 ± 1060 ng·h/mL, the AUClast ([4]; IV 2 mg/kg) was 6400 ± 1080 ng·h/mL and the AUCinf ([4]; PO 5 mg/kg) was 2910 ± 707 ng·h/mL. For the same compound, the AUClast ([4]; PO 5 mg/kg) was 2870 ± 704 ng·h/mL, the “clearance as % of liver blood flow” value ([4]; liver blood flow 5.4 L/h/kg) was 5.8% and the recovery at 4 h ([5]; plasma in a rapid equilibrium dialysis device, after 4-h incubation in rapid equilibrium dialysis device, read-out: recovery of vepdegestrant in the plasma) was > 85%. The fraction unbound at 4 h ([5]; plasma, calculated assuming buffer concentration at the lowest quantifiable limit, actual PPB likely higher) was 0.001, the vepdegestrant remaining [6] was 10.2% and the “remaining percentage” value ([7]; 60 min, 1 μM, with NADPH) was 97.1%. It also gave a half-life at 1 µM ([7]; beagle, liver microsomes, pH 7.4) of 9.85 h.
